Measurements as given in US11485726B2, “Compound for inhibiting and degrading tyrosine protein kinase ALK” (SHANGHAI MEIZER PHARMACEUTICALS CO., LTD., priority 2017, dated 2022).

Experiments:
[1] = biological target: T1, ALK kinase (Homo sapiens, UniProt Q9UM73); test: ALK protein degradation activity by Western blot in H2228 cells; format: cell-based; set-up: H2228 cell lines (human non-small cell line lung cancer cells, available from ATCC); host or cells: H2228 (human non-small cell lung cancer cells); the other entry of the earlier key: EML4 (Q9HC35, Echinoderm microtubule-associated protein-like 4); conditions: NCI-H2228, compound 1 μM, treatment for 24 hours, degradation rate by Western blot
Target sequence in this assay (Q9UM73 with tags, fused parts or gaps): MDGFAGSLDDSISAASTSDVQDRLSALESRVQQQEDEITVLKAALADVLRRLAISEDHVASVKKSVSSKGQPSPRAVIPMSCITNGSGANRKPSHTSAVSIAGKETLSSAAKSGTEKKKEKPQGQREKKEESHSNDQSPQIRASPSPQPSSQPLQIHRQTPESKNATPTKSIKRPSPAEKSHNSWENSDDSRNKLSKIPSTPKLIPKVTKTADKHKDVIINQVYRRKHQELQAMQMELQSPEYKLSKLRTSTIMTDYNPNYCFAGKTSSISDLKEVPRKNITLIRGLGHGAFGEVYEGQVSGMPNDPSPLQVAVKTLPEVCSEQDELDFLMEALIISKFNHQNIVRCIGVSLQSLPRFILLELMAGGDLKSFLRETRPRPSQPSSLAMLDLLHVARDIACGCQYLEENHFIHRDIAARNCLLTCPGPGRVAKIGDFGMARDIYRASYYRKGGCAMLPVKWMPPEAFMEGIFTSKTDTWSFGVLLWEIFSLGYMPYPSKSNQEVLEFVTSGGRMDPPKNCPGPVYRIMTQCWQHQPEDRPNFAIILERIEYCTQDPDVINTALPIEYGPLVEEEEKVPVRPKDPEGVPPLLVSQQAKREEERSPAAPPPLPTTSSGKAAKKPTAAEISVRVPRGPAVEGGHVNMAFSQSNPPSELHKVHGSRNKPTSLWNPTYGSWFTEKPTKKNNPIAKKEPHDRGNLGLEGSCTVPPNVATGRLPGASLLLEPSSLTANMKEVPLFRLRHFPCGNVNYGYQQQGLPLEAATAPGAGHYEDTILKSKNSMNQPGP

[2] = biological target: T1, ALK kinase; test: ALK inhibition activity by Caliper assay; format: biochemical; conditions: compound 100 nM
Protocol: Example 5 Testing the ALK Inhibition Activity of Compound by Caliper Assay
The experimental steps were as follows:
Preparation of 1×kinase reaction buffer (50 mM HEPES, PH 7.5; 0.0015% Brij-35) and kinase reaction termination solution (100 mM HEPES, PH 7.5; 0.0015% Brij-35; 0.2% Coating Reagent; 50 mM EDTA);
Preparation of experimental samples: 100 μl of 5 μM sample solution (dissolved in 100% DMSO) was added to a 96-well plate to obtain a 50×sample solution. As controls, two wells containing only 100 μL of 100% DMSO were set on the same plate. One was served as a control without samples and the other was served as a control without enzymes. 10 μL of sample and 90 μL, of 1×kinase reaction buffer were added to a 96-well plate as a transfer plate. The transfer plate was shaken for 10 minutes.
Preparation of the test plate: taking 5 μL of each of the prepared samples from the 96-well transfer plate into a 384-well plate.
Kinase reaction: to 5 μL of 5×compound solution (dissolved in DMSO, diluted 10 times with water) was added 10 μL of 2.5×ALK kinase solution (kinase was diluted with 1×kinase reaction buffer), which was incubated at room temperature for 10 min, and then 10 μL of 2.5×substrate peptide solution (FAM-labeled peptide and ATP were diluted with 1×kinase reaction buffer) was added.
Termination of the kinase reaction: 25 μL of kinase reaction termination solution was added after being reacted at 28° C. for a period of time.
The fluorescence (F) was tested on a Caliper and data was collected.
The inhibition rate of kinase activity was calculated: the percent inhibition rate of kinase activity=(FDMSO control−Fsample)/(FDMSO control−Fnegative control)×100, with DMSO as the solution control, and no kinase as the negative control.
Target sequence in this assay (Q9UM73 19-1620): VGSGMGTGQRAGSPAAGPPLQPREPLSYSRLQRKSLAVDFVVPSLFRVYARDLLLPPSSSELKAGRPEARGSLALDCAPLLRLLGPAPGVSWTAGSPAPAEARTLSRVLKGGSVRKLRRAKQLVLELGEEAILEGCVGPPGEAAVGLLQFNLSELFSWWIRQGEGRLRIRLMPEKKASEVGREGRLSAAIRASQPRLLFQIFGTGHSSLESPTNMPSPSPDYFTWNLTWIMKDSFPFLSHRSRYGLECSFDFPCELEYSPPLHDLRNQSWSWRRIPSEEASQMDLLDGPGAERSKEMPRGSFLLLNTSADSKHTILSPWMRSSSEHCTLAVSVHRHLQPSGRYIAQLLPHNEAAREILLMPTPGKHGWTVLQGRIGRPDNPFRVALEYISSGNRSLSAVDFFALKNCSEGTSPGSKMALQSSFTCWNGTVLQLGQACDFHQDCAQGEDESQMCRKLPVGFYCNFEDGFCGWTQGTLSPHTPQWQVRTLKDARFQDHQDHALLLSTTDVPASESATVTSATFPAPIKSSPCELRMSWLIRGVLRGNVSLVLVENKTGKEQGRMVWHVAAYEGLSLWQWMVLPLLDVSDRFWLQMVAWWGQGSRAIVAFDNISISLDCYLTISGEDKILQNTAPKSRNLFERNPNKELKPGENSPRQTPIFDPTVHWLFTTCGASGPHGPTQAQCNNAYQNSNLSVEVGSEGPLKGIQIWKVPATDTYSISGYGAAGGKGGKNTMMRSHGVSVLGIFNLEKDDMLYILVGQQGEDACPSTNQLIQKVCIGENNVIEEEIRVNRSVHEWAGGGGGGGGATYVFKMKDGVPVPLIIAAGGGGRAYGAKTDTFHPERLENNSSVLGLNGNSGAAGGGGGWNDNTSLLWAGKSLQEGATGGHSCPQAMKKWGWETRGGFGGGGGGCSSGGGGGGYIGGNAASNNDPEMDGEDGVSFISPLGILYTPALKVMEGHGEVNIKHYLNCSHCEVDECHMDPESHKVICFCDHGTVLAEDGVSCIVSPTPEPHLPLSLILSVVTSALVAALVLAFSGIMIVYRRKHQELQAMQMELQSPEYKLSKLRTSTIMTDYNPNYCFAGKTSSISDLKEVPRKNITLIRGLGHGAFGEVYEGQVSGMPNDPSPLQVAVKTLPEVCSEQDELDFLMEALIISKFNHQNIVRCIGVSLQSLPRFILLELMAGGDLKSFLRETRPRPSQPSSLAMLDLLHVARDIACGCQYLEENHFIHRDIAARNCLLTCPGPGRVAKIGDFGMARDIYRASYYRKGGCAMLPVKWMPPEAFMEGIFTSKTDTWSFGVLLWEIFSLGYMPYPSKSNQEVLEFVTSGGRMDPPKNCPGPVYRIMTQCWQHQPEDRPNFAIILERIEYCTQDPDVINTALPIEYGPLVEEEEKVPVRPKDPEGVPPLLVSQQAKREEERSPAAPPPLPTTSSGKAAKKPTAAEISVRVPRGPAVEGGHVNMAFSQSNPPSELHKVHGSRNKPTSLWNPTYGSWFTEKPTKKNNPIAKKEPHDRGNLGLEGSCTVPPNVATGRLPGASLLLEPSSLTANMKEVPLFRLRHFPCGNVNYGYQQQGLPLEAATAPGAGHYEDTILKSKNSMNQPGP

[3] = tested on: SU-DHL-1 cells; test: Inhibition of proliferation of SU-DHL-1 cells by CTG assay; format: cell-based; conditions: Homo sapiens, compound 100 μM, 72 hours
Protocol: Example 7 Testing the Inhibitory Effect of Formula Compound on the Proliferation of SU-DHL-1 Cells by CTG Assay
The inhibitory effect of the compound on the proliferation of SU-DHL-1 cells ([…]) was determined by the […] method in vitro. The Cells were cultured and the compound was prepared referring to the method of […], and the culture time after administration was 72 hours. Subsequently, an appropriate amount of CTG reagent was added, the luminescence value was measured, and the inhibition rate was calculated.

Row | Structure (SMILES) | inhibition at 1 µM [1] [%] | inhibition at 0.1 µM [2] [%] | inhibition at 100 µM [3] [%]
1 | Cc1cc(Nc2ncc(Cl)c(Nc3ccccc3S(=O)(=O)C(C)C)n2)c(OC(C)C)cc1C1CCN(CCCCCC(=O)Nc2cccc3c2C(=O)N(C2CCC(=O)NC2=O)C3=O)CC1 (centres unmarked) [Compound 3] | > 90 | 98 | 72
2 | Cc1cc(Nc2ncc(Cl)c(Nc3ccccc3S(=O)(=O)C(C)C)n2)c(OC(C)C)cc1C1CCN(CCOCCOCCOc2cccc3c2C(=O)N(C2CCC(=O)NC2=O)C3=O)CC1 (centres unmarked) [Compound 7] | > 90 | 97 | 98
3 | Cc1cc(Nc2ncc(Cl)c(Nc3ccccc3S(=O)(=O)C(C)C)n2)c(OC(C)C)cc1C1CCN(C(=O)COCCOCCNc2cccc3c2C(=O)N(C2CCC(=O)NC2=O)C3=O)CC1 (centres unmarked) [Compound 10] | > 90 | 99 | 
4 | Cc1cc(Nc2ncc(Cl)c(Nc3ccccc3S(=O)(=O)C(C)C)n2)c(OC(C)C)cc1C1CCN(S(=O)(=O)CCCCCOc2cccc3c2C(=O)N(C2CCC(=O)NC2=O)C3=O)CC1 (centres unmarked) [Compound 13] | > 90 | 69 | 
5 | Cc1cc(Nc2ncc(Cl)c(Nc3ccccc3S(=O)(=O)C(C)C)n2)c(OC(C)C)cc1C1CCN(CCOCCOCCOCCNc2cccc3c2C(=O)N(C2CCC(=O)NC2=O)C3=O)CC1 (centres unmarked) [Compound 14] | > 90 | 89 | 99
6 | Cc1cc(Nc2ncc(Cl)c(Nc3ccccc3S(=O)(=O)C(C)C)n2)c(OC(C)C)cc1C1CCN(CCOCCOCCOCCOc2cccc3c2C(=O)N(C2CCC(=O)NC2=O)C3=O)CC1 (centres unmarked) [Compound 15] | > 90 | 95 | 100
7 | Cc1cc(Nc2ncc(Cl)c(Nc3ccccc3S(=O)(=O)C(C)C)n2)c(OC(C)C)cc1C1CCN(CCCCC(=O)Nc2cccc3c2C(=O)N(C2CCC(=O)NC2=O)C3=O)CC1 (centres unmarked) [Compound 16] | > 90 |  | 
8 | Cc1cc(Nc2ncc(Cl)c(Nc3ccccc3S(=O)(=O)C(C)C)n2)c(OC(C)C)cc1C1CCN(CCCC(=O)Nc2cccc3c2C(=O)N(C2CCC(=O)NC2=O)C3=O)CC1 (centres unmarked) [Compound 17] | > 90 |  | 
9 | Cc1cc(Nc2ncc(Cl)c(Nc3ccccc3S(=O)(=O)C(C)C)n2)c(OC(C)C)cc1C1CCN(CCC(=O)Nc2cccc3c2C(=O)N(C2CCC(=O)NC2=O)C3=O)CC1 (centres unmarked) [Compound 18] | > 90 |  | 
10 | Cc1cc(Nc2ncc(Cl)c(Nc3ccccc3S(=O)(=O)C(C)C)n2)c(OC(C)C)cc1C1CCN(CCOCCOCCC(=O)Nc2cccc3c2C(=O)N(C2CCC(=O)NC2=O)C3=O)CC1 (centres unmarked) [Compound 19] | > 90 |  | 
11 | Cc1cc(Nc2ncc(Cl)c(Nc3ccccc3S(=O)(=O)C(C)C)n2)c(OC(C)C)cc1C1CCN(CCOCCOCCOCCC(=O)Nc2cccc3c2C(=O)N(C2CCC(=O)NC2=O)C3=O)CC1 (centres unmarked) [Compound 20] | > 90 |  | 
12 | Cc1cc(Nc2ncc(Cl)c(Nc3ccccc3S(=O)(=O)C(C)C)n2)c(OC(C)C)cc1C1CCN(CCOCCOc2cccc3c2C(=O)N(C2CCC(=O)NC2=O)C3=O)CC1 (centres unmarked) [Compound 21] | 50 to 90 |  | 
13 | Cc1cc(Nc2ncc(Cl)c(Nc3ccccc3S(=O)(=O)C(C)C)n2)c(OC(C)C)cc1C1CCN(CCCCCOc2cccc3c2C(=O)N(C2CCC(=O)NC2=O)C3=O)CC1 (centres unmarked) [Compound 22] | 50 to 90 |  | 
14 | Cc1cc(Nc2ncc(Cl)c(Nc3ccccc3S(=O)(=O)C(C)C)n2)c(OC(C)C)cc1C1CCN(CCCCOc2cccc3c2C(=O)N(C2CCC(=O)NC2=O)C3=O)CC1 (centres unmarked) [Compound 23] | 50 to 90 |  | 
15 | Cc1cc(Nc2ncc(Cl)c(Nc3ccccc3S(=O)(=O)C(C)C)n2)c(OC(C)C)cc1C1CCN(CCCOc2cccc3c2C(=O)N(C2CCC(=O)NC2=O)C3=O)CC1 (centres unmarked) [Compound 24] | 50 to 90 |  | 
16 | Cc1cc(Nc2ncc(Cl)c(Nc3ccccc3S(=O)(=O)C(C)C)n2)c(OC(C)C)cc1C1CCN(CCOCCOCCOCCOCCOc2cccc3c2C(=O)N(C2CCC(=O)NC2=O)C3=O)CC1 (centres unmarked) [Compound 25] | > 90 |  | 
17 | Cc1cc(Nc2ncc(Cl)c(Nc3ccccc3S(=O)(=O)C(C)C)n2)c(OC(C)C)cc1C1CCN(CCOCCOCCOCCOCCOCCOc2cccc3c2C(=O)N(C2CCC(=O)NC2=O)C3=O)CC1 (centres unmarked) [Compound 26] | 50 to 90 |  | 
18 | Cc1cc(Nc2ncc(Cl)c(Nc3ccccc3S(=O)(=O)C(C)C)n2)c(OC(C)C)cc1C1CCN(CCOCCNc2cccc3c2C(=O)N(C2CCC(=O)NC2=O)C3=O)CC1 (centres unmarked) [Compound 27] | > 90 |  | 

Row | Structure (SMILES) | inhibition at 1 µM [1] [%] | inhibition at 0.1 µM [2] [%] | inhibition at 100 µM [3] [%]
19 | Cc1cc(Nc2ncc(Cl)c(Nc3ccccc3S(=O)(=O)C(C)C)n2)c(OC(C)C)cc1C1CCN(CCCCCNc2cccc3c2C(=O)N(C2CCC(=O)NC2=O)C3=O)CC1 (centres unmarked) [Compound 28] | > 90 |  | 
20 | Cc1cc(Nc2ncc(Cl)c(Nc3ccccc3S(=O)(=O)C(C)C)n2)c(OC(C)C)cc1C1CCN(CCCCNc2cccc3c2C(=O)N(C2CCC(=O)NC2=O)C3=O)CC1 (centres unmarked) [Compound 29] | 50 to 90 |  | 
21 | Cc1cc(Nc2ncc(Cl)c(Nc3ccccc3S(=O)(=O)C(C)C)n2)c(OC(C)C)cc1C1CCN(CCCNc2cccc3c2C(=O)N(C2CCC(=O)NC2=O)C3=O)CC1 (centres unmarked) [Compound 30] | 50 to 90 |  | 
22 | Cc1cc(Nc2ncc(Cl)c(Nc3ccccc3S(=O)(=O)C(C)C)n2)c(OC(C)C)cc1C1CCN(CCOCCOCCOCCOCCNc2cccc3c2C(=O)N(C2CCC(=O)NC2=O)C3=O)CC1 (centres unmarked) [Compound 31] | > 90 |  | 
23 | Cc1cc(Nc2ncc(Cl)c(Nc3ccccc3S(=O)(=O)C(C)C)n2)c(OC(C)C)cc1C1CCN(CCOCCOCCOCCOCCOCCNc2cccc3c2C(=O)N(C2CCC(=O)NC2=O)C3=O)CC1 (centres unmarked) [Compound 32] | 50 to 90 |  | 
24 | Cc1cc(Nc2ncc(Cl)c(Nc3ccccc3S(=O)(=O)C(C)C)n2)c(OC(C)C)cc1C1CCN(CC(=O)NCCNc2cccc3c2C(=O)N(C2CCC(=O)NC2=O)C3=O)CC1 (centres unmarked) [Compound 33] | > 90 |  | 
25 | Cc1cc(Nc2ncc(Cl)c(Nc3ccccc3S(=O)(=O)C(C)C)n2)c(OC(C)C)cc1C1CCN(CC(=O)NCCOCCOCCNc2cccc3c2C(=O)N(C2CCC(=O)NC2=O)C3=O)CC1 (centres unmarked) [Compound 35] | > 90 |  | 
26 | Cc1cc(Nc2ncc(Cl)c(Nc3ccccc3S(=O)(=O)C(C)C)n2)c(OC(C)C)cc1C1CCN(CC(=O)NCCOCCOCCOCCNc2cccc3c2C(=O)N(C2CCC(=O)NC2=O)C3=O)CC1 (centres unmarked) [Compound 36] | > 90 |  | 
27 | Cc1cc(Nc2ncc(Cl)c(Nc3ccccc3S(=O)(=O)C(C)C)n2)c(OC(C)C)cc1C1CCN(CC(=O)NCCOCCOCCOCCOCCNc2cccc3c2C(=O)N(C2CCC(=O)NC2=O)C3=O)CC1 (centres unmarked) [Compound 37] | 50 to 90 |  | 
28 | Cc1cc(Nc2ncc(Cl)c(Nc3ccccc3S(=O)(=O)C(C)C)n2)c(OC(C)C)cc1C1CCN(CC(=O)NCCOCCOCCOCCOCCOCCNc2cccc3c2C(=O)N(C2CCC(=O)NC2=O)C3=O)CC1 (centres unmarked) [Compound 38] | 50 to 90 |  | 
29 | Cc1cc(Nc2ncc(Cl)c(Nc3ccccc3S(=O)(=O)C(C)C)n2)c(OC(C)C)cc1C1CCN(CC(=O)NCCOc2cccc3c2C(=O)N(C2CCC(=O)NC2=O)C3=O)CC1 (centres unmarked) [Compound 39] | > 90 |  | 
30 | Cc1cc(Nc2ncc(Cl)c(Nc3ccccc3S(=O)(=O)C(C)C)n2)c(OC(C)C)cc1C1CCN(CC(=O)NCCOCCOc2cccc3c2C(=O)N(C2CCC(=O)NC2=O)C3=O)CC1 (centres unmarked) [Compound 40] | > 90 |  | 
31 | Cc1cc(Nc2ncc(Cl)c(Nc3ccccc3S(=O)(=O)C(C)C)n2)c(OC(C)C)cc1C1CCN(CC(=O)NCCOCCOCCOc2cccc3c2C(=O)N(C2CCC(=O)NC2=O)C3=O)CC1 (centres unmarked) [Compound 41] | > 90 |  | 
32 | Cc1cc(Nc2ncc(Cl)c(Nc3ccccc3S(=O)(=O)C(C)C)n2)c(OC(C)C)cc1C1CCN(CC(=O)NCCOCCOCCOCCOc2cccc3c2C(=O)N(C2CCC(=O)NC2=O)C3=O)CC1 (centres unmarked) [Compound 42] | > 90 |  | 
33 | Cc1cc(Nc2ncc(Cl)c(Nc3ccccc3S(=O)(=O)C(C)C)n2)c(OC(C)C)cc1C1CCN(CC(=O)NCCOCCOCCOCCOCCOc2cccc3c2C(=O)N(C2CCC(=O)NC2=O)C3=O)CC1 (centres unmarked) [Compound 43] | 50 to 90 |  | 
34 | Cc1cc(Nc2ncc(Cl)c(Nc3ccccc3S(=O)(=O)C(C)C)n2)c(OC(C)C)cc1C1CCN(CC(=O)NCCOCCOCCOCCOCCOCCOc2cccc3c2C(=O)N(C2CCC(=O)NC2=O)C3=O)CC1 (centres unmarked) [Compound 44] | 50 to 90 |  | 
35 | Cc1cc(Nc2ncc(Cl)c(Nc3ccccc3S(=O)(=O)C(C)C)n2)c(OC(C)C)cc1C1CCN(CCOCCOCCNc2cccc3c2C(=O)N(C2CCC(=O)NC2=O)C3=O)CC1 (centres unmarked) [Compound 45] | > 90 | 98 | 97
